According to US20250171437A1 (Agios Pharmaceuticals,Inc., priority 2022, published 2025):

Biological target: T1, human PAH with the R408W mutation (A375 R408W cells) (Homo sapiens, UniProt P00439, R408W)
T1 construct: expressed in transfected cells
T1 sequence (P00439 1-452 R408W): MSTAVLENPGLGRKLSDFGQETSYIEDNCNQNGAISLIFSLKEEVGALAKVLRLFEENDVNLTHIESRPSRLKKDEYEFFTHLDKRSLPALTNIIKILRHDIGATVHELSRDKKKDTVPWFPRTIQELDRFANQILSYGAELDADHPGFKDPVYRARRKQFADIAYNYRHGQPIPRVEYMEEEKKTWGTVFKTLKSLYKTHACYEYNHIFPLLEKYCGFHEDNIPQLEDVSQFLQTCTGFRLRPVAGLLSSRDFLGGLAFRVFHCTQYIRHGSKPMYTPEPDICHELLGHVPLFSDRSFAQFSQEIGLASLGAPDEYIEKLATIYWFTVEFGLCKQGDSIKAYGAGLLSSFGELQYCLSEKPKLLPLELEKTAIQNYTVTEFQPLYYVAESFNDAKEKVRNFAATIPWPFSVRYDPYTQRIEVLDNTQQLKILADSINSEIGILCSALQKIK
Assay: Cell Based Phenylalanine Flux Assay
Conditions: 24 hrs with compound, then 20 μM sepiapterin and 800 μM 13C9,15N-Phenylalanine for 4 hours, 13C-Tyrosine by LC-MS, average where tested multiple times
In short: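 A375 cells stably expressing human PAH R408W treated 24 h at 37° C with a 10-point 2-fold dose curve in duplicate, 0.5% DMSO. Then 20 μM sepiapterin and 800 μM 13C9,15N-Phe added for 4 h; 13C-Tyr in media measured by LC-MS to give AC50.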

## Cc1cnn(C)c1-c1nnc(C(=O)N2CCc3[nH]cnc3[C@@H]2c2nc3cc(F)ccc3o2)o1 [Example 120, (R)-(5-(1,4-dimethyl-1H-pyrazol-5-yl)-1,3,4-oxadiazol-2-yl)(4-(5-fluorobenzo[d]oxazol-2-yl)-6,7-dihydro-1H-imidazo[4,5-c]pyridin-5(4H)-yl)methanone]
A375 R408W cells
  AC50: 1000 to 5000 nM

## O=C(c1nnc(-c2ccc(F)cn2)o1)N1CCc2[nH]cnc2[C@H]1c1nc2cc(F)ccc2o1 [Example 33, (S)-(4-(5-fluorobenzo[d]oxazol-2-yl)-6,7-dihydro-1H-imidazo[4,5-c]pyridin-5(4H)-yl)(5-(5-fluoropyridin-2-yl)-1,3,4-oxadiazol-2-yl)methanone]
A375 R408W cells
  AC50: 500 to 1000 nM

## CC(C)(O)c1nc(C(F)F)c(C(=O)N2CCc3[nH]cnc3[C@@H]2c2nc3ccc(F)c(F)c3o2)o1 [Example 298, (R)-(4-(6,7-difluorobenzo[d]oxazol-2-yl)-6,7-dihydro-1H-imidazo[4,5-c]pyridin-5(4H)-yl)(4-(difluoromethyl)-2-(2-hydroxypropan-2-yl)oxazol-5-yl)methanone]
A375 R408W cells
  AC50: 1000 to 5000 nM

## O=C(c1oc(-c2cnccn2)nc1C(F)F)N1CCc2[nH]cnc2[C@@H]1c1nc2cc(F)ccc2o1 [Example 528, (R)-(4-(difluoromethyl)-2-(pyrazin-2-yl)oxazol-5-yl)(4-(5-fluorobenzo[d]oxazol-2-yl)-6,7-dihydro-1H-imidazo[4,5-c]pyridin-5(4H)-yl)methanone]
A375 R408W cells
  AC50: 1000 to 5000 nM

## CC(C)(O)c1nc(C(F)F)c(C(=O)N2CCc3[nH]cnc3[C@H]2c2nc3ccc(F)cc3o2)o1 [Example 187, (S)-(4-(difluoromethyl)-2-(2-hydroxypropan-2-yl)oxazol-5-yl)(4-(6-fluorobenzo[d]oxazol-2-yl)-6,7-dihydro-1H-imidazo[4,5-c]pyridin-5(4H)-yl)methanone]
A375 R408W cells
  AC50: ≤ 500 nM

## Cc1ccc2oc([C@H]3c4nc[nH]c4CCN3C(=O)c3nnc(-c4cn[nH]c4)o3)nc2c1 [Example 492, (R)-(5-(1H-pyrazol-4-yl)-1,3,4-oxadiazol-2-yl)(4-(5-methylbenzo[d]oxazol-2-yl)-6,7-dihydro-1H-imidazo[4,5-c]pyridin-5(4H)-yl)methanone]
A375 R408W cells
  AC50: 1000 to 5000 nM

## COc1cccc2oc([C@H]3c4nc[nH]c4CCN3C(=O)c3nnc(-c4cnn(C)c4)o3)nc12 [Example 625, (R)-(4-(4-methoxybenzo[d]oxazol-2-yl)-6,7-dihydro-1H-imidazo[4,5-c]pyridin-5(4H)-yl)(5-(1-methyl-1H-pyrazol-4-yl)-1,3,4-oxadiazol-2-yl)methanone]
A375 R408W cells
  AC50: 1000 to 5000 nM

## Cc1ccc2oc([C@@H]3c4nc[nH]c4CCN3C(=O)c3oc(C(C)(C)O)nc3C(F)F)nc2c1 [Example 311, (S)-(4-(difluoromethyl)-2-(2-hydroxypropan-2-yl)oxazol-5-yl)(4-(5-methylbenzo[d]oxazol-2-yl)-6,7-dihydro-1H-imidazo[4,5-c]pyridin-5(4H)-yl)methanone]
A375 R408W cells
  AC50: ≤ 500 nM

## O=C(c1cnn2cc(CN3CCOCC3)ccc12)N1CCc2[nH]cnc2C1c1nc2cc(F)ccc2o1 (stereo not drawn)
A375 cells expressing R408W PAH
  AC50: 1000 to 5000 nM

## O=C(c1ocnc1C(F)F)N1CCc2[nH]cnc2[C@@H]1c1nc2cc(F)c(F)cc2o1 [Example 296, (R)-(4-(5,6-difluorobenzo[d]oxazol-2-yl)-6,7-dihydro-1H-imidazo[4,5-c]pyridin-5(4H)-yl)(4-(difluoromethyl)oxazol-5-yl)methanone]
A375 R408W cells
  AC50: 1000 to 5000 nM

## COc1ccc(-c2nnc(C(=O)N3CCc4[nH]cnc4[C@@H]3c3nc4cc(C)ccc4o3)o2)nc1 [Example 678, (R)-(5-(5-methoxypyridin-2-yl)-1,3,4-oxadiazol-2-yl)(4-(5-methylbenzo[d]oxazol-2-yl)-6,7-dihydro-1H-imidazo[4,5-c]pyridin-5(4H)-yl)methanone]
A375 R408W cells
  AC50: 1000 to 5000 nM

## Cn1ccc(-c2nnc(C(=O)N3CCc4[nH]cnc4[C@@H]3c3nc4cc(F)ccc4o3)o2)n1 [Example 105, (R)-(4-(5-fluorobenzo[d]oxazol-2-yl)-6,7-dihydro-1H-imidazo[4,5-c]pyridin-5(4H)-yl)(5-(1-methyl-1H-pyrazol-3-yl)-1,3,4-oxadiazol-2-yl)methanone]
A375 R408W cells
  AC50: 1000 to 5000 nM
